Like-named read-outs stand apart in the source and are kept apart here.

One assay addresses T1, 5-HT1D receptor (Oryctolagus cuniculus, UniProt P49144).
T1 construct: Ring segments of the vein (4-5 mm in length) were cut and the endothelium gently removed; from tissue; host or cells: rabbit saphenous vein rings, endothelium removed
The assay can be described thus: Agonist assay, contraction of rabbit isolated saphenous vein. Also on record: species or system rabbit (male New Zealand White). How it is done:
Tissues were obtained from male New Zealand White rabbits (c. 3-4 kg) which were sacrificed by an overdose of pentobarbitol. The saphenous veins from both the left and right side were cleaned of fat and connective tissue and placed in Krebs solution (118 mM NaCl, 11 mM glucose, 25 mM NaHCO3, 4,7 mM KCl, 2.5 mM CaCl2 2H2 O, 1.2 mM KH2 PO4 and 1.2 mM MgSO4 7H2 O). Ring segments of the vein (4-5 mm in length) were cut and the endothelium gently removed. The segments were mounted in 10 mL baths containing Krebs buffer and were constantly aerated with 95% oxygen/5% carbon dioxide and maintained at 37° C. and pH 7.4 in order to record the isometric tension. A resting tension of 2.5 g was applied and the tissues allowed to equilibrate for 90 minutes, with washing every 15-20 minutes. After the equilibrium period, the rings were depolarized by addition of two aliquots of KCl (80 mM final concentration)separated by a 20 minute washing period. The tissues were then exposed to prazosin, idazoxan and indomethacin (all 1 μM in final concentration) for 30 minutes in order to exclude the actions of α1 - and α2 -adrenergic receptors and prostaglandin receptors respectively. […] Responses were calculated as a percentage of the maximal contraction evoked by 80 mM KCl. Only one compound was tested per preparation.
EC50 represents the concentration of the compound which causes 50% of the maximum contraction effected by it.

In the next assay the target is T2, 5-HT1Dα (Homo sapiens, UniProt P28221).
T2 construct: expressed in transfected cells
T2 sequence (P28221 whole entry): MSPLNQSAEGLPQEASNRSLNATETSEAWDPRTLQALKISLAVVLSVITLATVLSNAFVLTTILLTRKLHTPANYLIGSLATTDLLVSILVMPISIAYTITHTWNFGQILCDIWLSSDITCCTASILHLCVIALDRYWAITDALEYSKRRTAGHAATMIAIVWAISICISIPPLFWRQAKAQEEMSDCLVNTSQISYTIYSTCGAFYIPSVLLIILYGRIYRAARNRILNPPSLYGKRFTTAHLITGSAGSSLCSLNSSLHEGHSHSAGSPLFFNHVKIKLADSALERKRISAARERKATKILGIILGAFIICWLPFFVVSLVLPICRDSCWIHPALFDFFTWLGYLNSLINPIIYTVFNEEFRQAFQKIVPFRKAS
The assay can be described thus: Binding affinity, inhibition of 3H-5-HT binding, 5-HT1Dα. Particulars: 1 h, 100 nm, 60 minute at 22° C., mean of triplicate determinations. The method, then:
(§1) Compounds of the previous examples, as well as reference compounds, were evaluated for binding affinity using cell types receptive specifically to 5-HT1Dα and 5-HT1Dβ ligands. The assay protocol generally entailed the incubation of membranes prepared from cells expressing the 1Dβ or 1Dα sub-type of 5-HT receptors, with ^3 H-5-HT. The test compound was incubated at 100 nm concentration with the radioligand and the membrane homogenates prepared from the recombinant cells. After a 60 minute incubation at 22° C., the incubation was terminated by vacuum filtration. The filters were washed with buffer and counted for radioactivity using liquid scintillation spectrometry. The affinity of the test compound for the 5-HT1Dβ or 5-HT1Dα receptor estimated by its inhibition of binding of the radioligand to the receptor. The result is expressed desciptively as percent inhibition of binding. Each value is the mean of triplicate determinations. For comparison, sumatriptan was also evaluated. The results are presented in Table 2 below, with reference to the compound numbers of Table 1 and the specific synthesis examples given above.

The next assay deals with T3, 5-HT1Dβ (Homo sapiens, UniProt P28222).
T3 construct: expressed in transfected cells
T3 sequence (P28222 whole entry): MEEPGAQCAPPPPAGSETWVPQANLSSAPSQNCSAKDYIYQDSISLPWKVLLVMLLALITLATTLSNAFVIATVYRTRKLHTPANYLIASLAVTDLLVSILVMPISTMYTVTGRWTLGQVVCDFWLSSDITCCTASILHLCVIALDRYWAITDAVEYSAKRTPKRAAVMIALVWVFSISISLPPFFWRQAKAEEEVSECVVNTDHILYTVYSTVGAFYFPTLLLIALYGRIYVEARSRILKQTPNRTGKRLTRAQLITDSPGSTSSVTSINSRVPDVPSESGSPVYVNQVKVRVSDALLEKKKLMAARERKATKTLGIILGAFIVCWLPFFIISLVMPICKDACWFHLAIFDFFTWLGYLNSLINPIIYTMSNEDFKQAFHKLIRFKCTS
In words: Binding affinity, inhibition of 3H-5-HT binding, 5-HT1Dβ. The conditions noted are these: 1 h, 100 nm, 60 minute at 22° C., mean of triplicate determinations. The method, then: as §1, with “determinations.” for “determinations. For comparison, sumatriptan was also evaluated. The results are presented in Table 2 below, with reference to the compound numbers of Table 1 and the specific synthesis examples given above.”

The test system of the next assay is 5-HT1 receptor. The conditions noted are these: WO 93/21178, Example 67; cited from earlier work.
In another assay the test system is 5-HT1D. The conditions noted are these: prior art; cited from earlier work.
For the next assay, the system named is other 5-HT receptors. Particulars: prior art; cited from earlier work.
A further assay relates to 5-HT1F. Particulars: prior art; cited from earlier work.
Setting [1] is: rabbit isolated saphenous vein, 50% of the maximum contraction effected by the compound, with prazosin, idazoxan, indomethacin 1 μM, read-out: EC50.

T1 sequence (P49144 whole entry): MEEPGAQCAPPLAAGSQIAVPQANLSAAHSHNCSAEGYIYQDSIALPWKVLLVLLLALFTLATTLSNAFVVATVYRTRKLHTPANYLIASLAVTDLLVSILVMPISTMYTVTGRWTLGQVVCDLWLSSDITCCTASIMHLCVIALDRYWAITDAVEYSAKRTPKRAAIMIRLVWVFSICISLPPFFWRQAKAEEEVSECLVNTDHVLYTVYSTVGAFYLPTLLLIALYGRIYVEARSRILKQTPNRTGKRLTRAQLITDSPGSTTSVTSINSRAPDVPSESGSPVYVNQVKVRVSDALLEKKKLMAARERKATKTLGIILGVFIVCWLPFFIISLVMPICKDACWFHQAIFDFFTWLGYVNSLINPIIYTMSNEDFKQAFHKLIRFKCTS

Regarding `CN1CCC(c2c[nH]c3ccc(-c4cccs4)cc23)C1` (racemic) [Compound 8, 3-(N-Methylpyrrolidin-3-yl)-5-(2-thienyl)-1H-indole], at 5-HT1D receptor (setting [1]), the EC50 was determined as 1730 nM. Moreover, the values for the inhibition at 0.1 µM on 5-HT1Dα and on 5-HT1Dβ were 95% and 68%, respectively.
As for `CN(C)CC(O)c1c[nH]c2ccc(-c3ccsc3)cc12` (racemic) [Compound 10, (±)-3-(2-N,N-Dimethylamino-1-hydroxylethyl)-5-(3-thienyl)-1H-indole], the EC50 on 5-HT1D receptor (setting [1]) stood at 888 nM. The inhibition at 0.1 µM at 5-HT1Dα was determined as 93%; on 5-HT1Dβ, 42%.
In the case of `CN1CCC[C@@H]1Cc1c[nH]c2ccc(-c3ccc(C(N)=O)s3)cc12` [5-(5-carbamoyl-2-thienyl)-3-(1-methylpyrrolidin-2(R)-ylmethyl)-1H-indole], the 5-HT1 receptor activity entry in the assay with 5-HT1 receptor is “some 5-HT1 receptor activity”.
For the molecule `CN1CCC[C@@H]1Cc1c[nH]c2ccc(-c3cccs3)cc12` [Compound 1, 3-(N-Methylpyrrolidin-2R-ylmethyl)-5-(2-thienyl)-1H-indole], the EC50 on 5-HT1D receptor (setting [1]) is 121 nM. Moreover, the values for the inhibition at 0.1 µM on 5-HT1Dα and at 5-HT1Dβ were 98% and 84%, respectively.
Consider `CN1CCC[C@@H]1Cc1c[nH]c2ccc(-c3ccsc3)cc12` [Compound 2, 3-(N-Methylpyrrolidin-2R-ylmethyl)-5-(3-thienyl)-1H-indole], for which the EC50 at 5-HT1D receptor (setting [1]) came to 140 nM. In addition, the inhibition at 0.1 µM at 5-HT1Dα came out at 99%; on 5-HT1Dβ, 83%.
On the same counts, the results for `CN(C)CCc1c[nH]c2ccc(-c3ccsc3)cc12` [Compound 3, 3-(2-N,N-Dimethylaminoethyl)-5-(3-thienyl)-1H-indole] are 432 nM, 98% and 78%.
On to `CN(C)CCc1c[nH]c2ccc(-c3cccs3)cc12` [Compound 4, 3-(2-N,N-Dimethylaminoethyl)-5-(2-thienyl)-1H-indole], for which the EC50 at 5-HT1D receptor (setting [1]) was 806 nM. Besides, the inhibition at 0.1 µM on 5-HT1Dα is 97%; on 5-HT1Dβ, 72%.
In the case of `CN(C)CCc1c[nH]c2ccc(-c3ccc(CO)s3)cc12` [Compound 5, 3-(2-N,N-Dimethylaminoethyl)-5-(5-hydroxymethylthienyl-2-yl)-1H-indole], the inhibition at 0.1 µM is 96% on 5-HT1Dα and 77% at 5-HT1Dβ.
Consider `CN1CCC[C@H]1Cc1c[nH]c2ccc(-c3cccs3)cc12` [Compound 6, 3-(N-Methylpyrrolidin-2S-ylmethyl)-5-(2-thienyl)-1H-indole], for which the EC50 on 5-HT1D receptor (setting [1]) turned out to be 873 nM. Besides, the results for the inhibition at 0.1 µM on 5-HT1Dα and on 5-HT1Dβ were 96% and 47%, respectively.
On the same counts, the results for `NCCc1c[nH]c2ccc(-c3cccs3)cc12` [Compound 7, 3-(2-Aminoethyl)-5-(2-thienyl)-1H-indole] are 607 nM, 98% and 78%.
For `CN(C)CCc1c[nH]c2ccc(-c3ccc(Cl)s3)cc12` [Compound 9, 5-(5-Chlorothien-2-yl)-3-(2-N,N-dimethylaminoethyl)-1H-indole], the figures for the inhibition at 0.1 µM on 5-HT1Dα and on 5-HT1Dβ were 97% and 83%, respectively.
`c1csc(-c2ccc3[nH]cc(CCN4CCCC4)c3c2)c1` [Compound 11, 3-(2-Pyrrolidinylethyl)-5-(2-thienyl)-1H-indole] showed an EC50 on 5-HT1D receptor of 2340 nM. For the same molecule, the Emax at 5-HT1D receptor (rabbit isolated saphenous vein, maximum contraction vs KCl (80 mM), read-out: agonist type (maximum contraction relative to 80 mM KCl)) was less than 60%. Besides, the inhibition at 0.1 µM on 5-HT1Dα was found to be 84%; on 5-HT1Dβ, 14%.
With `Cc1ccc(-c2ccc3[nH]cc(CCN(C)C)c3c2)s1` [Compound 12, 3-(2-N,N-Dimethylaminoethyl)-5-(5-methylthien-2-yl)-1H-indole], the results for the inhibition at 0.1 µM at 5-HT1Dα and at 5-HT1Dβ were 87% and 52%, respectively.
On to `CNS(=O)(=O)Cc1ccc2[nH]cc(CCN(C)C)c2c1` [Sumatriptan], for which the “binding affinity for 5-HT1D” value in the assay on 5-HT1D is given as “high affinity”. The same molecule yielded an inhibition at 0.1 µM at 5-HT1Dα of 95%. Also, the “binding to other 5-HT receptors” value with other 5-HT receptors is “substantial exclusion of other 5-HT receptors”. In addition, the “binding affinity for 5-HT1F” value in the assay on 5-HT1F is on record as “high affinity”.
